Laboratory results from PMC4578755, “Development of novel cellular histone-binding and chromatin-displacement assays for bromodomain drug discovery” (Epigenetics & Chromatin, 2015).

Tests used:
[1] = target: T1, TRIM24-PB/histone H3 co-localization in HeLa TRIM24-PB cells (Homo sapiens, UniProt O15164); experiment: Proximity ligation assay (PLA) TRIM24/histone H3; format: cell-based; conditions: SAHA treatment; Alexa-conjugated secondary antibodies
T1 construct: The FLAG-TRIM24-PB construct (residues 810–1050) was generated by PCR amplification; expressed in transfected cells
T1 sequence (O15164 810-1050): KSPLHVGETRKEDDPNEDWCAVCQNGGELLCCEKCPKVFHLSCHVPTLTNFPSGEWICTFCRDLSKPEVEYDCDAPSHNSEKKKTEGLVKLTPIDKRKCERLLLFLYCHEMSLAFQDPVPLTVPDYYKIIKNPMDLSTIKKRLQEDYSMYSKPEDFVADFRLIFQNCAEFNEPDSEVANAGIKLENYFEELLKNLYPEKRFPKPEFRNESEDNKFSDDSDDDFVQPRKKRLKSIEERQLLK
Description: Hela cells expressing FLAG-TRIM24-PHD-Bromo-V5 (TRIM24-PB) (20 K/100 µL) were seeded into 96-well plates (Corning Costar #CLS3603) in DMEM media supplemented with 10 % FBS and grown overnight. After treatment with SAHA (5 µM, 2 h), plates were washed with PBS (150ul per well) and fixed with 4 % paraformaldehyde (10 min at RT). PLA was performed using Duolink® In situ Red Starter Kit Mouse/Goat (Sigma-Aldrich, DUO92103), according to manufacturer’s recommendation. Primary antibody pair was: Goat anti-V5 (1:200 dilution; Bethyl #A190-119A) and Mouse anti-histone H3 (1:4000 dilution; Active Motif, #39763). Following PLA, secondary antibody Alexa Fluor®594 Donkey Anti-Goat (Invitrogen #A-11056) and Alexa Fluor®488 Donkey Anti-Mouse (Invitrogen #A-21202) were used to measure the total levels of V5 and histone H3. Using the High-Content Screening System Operetta with 40× magnification, cell images from 25 fields in each well were taken in 4 channels (Alexa488, Alexa594, Alexa647 and Hoechst). […] For each gated cell, we calculated the mean signal intensity for histone H3 (Alexa488 in the nucleus minus Alexa488 in the cytoplasm); TRIM24 (Alexa594 in the nucleus minus the […] intensity in the cytoplasm); and the mean number for the PLA signal (number of spots in nucleus). […]

[2] = target: T2, TRIM24-PB binding to endogenous histone H3 in HeLa TRIM24-PB cells (Homo sapiens, UniProt O15164); experiment: Cellular TRIM24/histone H3 AlphaLISA binding assay; format: cell-based; conditions: co-treated with SAHA, 2 h, 6 independent experiments, listed as TRIM24 inhibitor, read-out: Cell EC50 (AlphaLISA)
T2 construct: The FLAG-TRIM24-PB construct (residues 810–1050) was generated by PCR amplification; expressed in transfected cells
T2 sequence (O15164 810-1050): T1 sequence (O15164 810-1050)
Description: Hela TRIM24-PB cells were maintained in DMEM medium supplemented with 10 % FBS and 5 µg/mL of Blasticidin. Cells were seeded (10,000/well, 40 µL) to 384-well white culture plates (PerkinElmer, #6007680) using a Multidrop 384 reagent dispenser (Thermo Scientific) and incubated overnight at 37 °C and 5 % CO2. On Day 2, the cells were co-treated with SAHA (10 µM) and test compound and incubated at 37 °C and 5 % CO2 for 2 h. The plates were washed twice with PBS (60 µL at RT) using a Biomek FX liquid handler (Beckman Coulter). […] Plates were read on Envision plate reader (PerkinElmer) using AlphaScreen protocol and all IC50 values (four-parameter logistic curve) were obtained using GraphPad Prism 6 software. […]
All EC50 values were calculated based on these POC values using four-parametric nonlinear regression (i.e., curve fitting) software (either Genedata Screener™ software version 11 or Graphpad Prism 6). For the cell-based AlphaLISA assay, the POC values were calculated using the following wells and process: (1) a “blank subtraction” was performed by subtracting the mean signal of the blank control wells (which contained media but lacked cells) from all of the measured values; (2) these corrected values were then used in the POC formula stated above. […] Average and standard Deviation (SD) values were calculated using the Harmony software (PerkinElmer). […]

Mean nuclei levels of TRIM24 [1] | EC50 [2] [µM] | Compound
did not change | – | O=C(CCCCCCC(=O)Nc1ccccc1)NO [SAHA, Suberoylanilide Hydroxamic Acid]
– | 1.3 | Cc1nc(S(=O)(=O)Nc2cc3c(cc2Oc2cccc(OCC(C)C)c2)n(C)c(=O)n3C)cn1C [IACS-6558, N-{1,3-dimethyl-6-[3-(2-methylpropoxy)phenoxy]-2-oxo-2,3-dihydro-1H-1,3-benzodiazol-5-yl}-1,2-dimethyl-1H-imidazole-4-sulfonamide]
